Entries after “also recorded” stand apart in the source; their conditions may differ.
Assay: Dissolution of Retinol in water
Format: physicochemical
Settings: without TPGS
Excerpt: All attempts to dissolve Retinol in water were unsuccessful except when using a micellar formulation with TPGS, as per the method described in Example 1.
Retinol. No research was undertaken on Objective 2 because Retinol is insoluble in water.

solubility in water: insoluble; also recorded: unsuccessful
Compound: CC1=C(/C=C/C(C)=C/C=C/C(C)=C/CO)C(C)(C)CCC1 [Retinol]

Source: patent EP3454821B1, “MICELLES OF D-ALPHA-TOCOPHERYL POLYETHYLENE GLYCOL 1000 SUCCINATE” (Phytoceutical Limited, priority 2016, dated 2017)
